Where two headings read alike, the source gives them in different places.
Columns and labels:
[1] = system: P. falciparum 3D7 strain; assay: Malstat assay, asexual blood stages, CQ-sensitive strain 3D7; type: cell-based; details: Plasmodium falciparum; for IC50: read-out: IC50 (µM) CQ-Sensitive Strain 3D7; for IC90: 90% inhibitory concentration estimated from the IC50
Procedure: (§1) Three P. falciparum strains were used for compound testing; a strain sensitive to chloroquine (CQ) 3D7, CQ-resistant strain Dd2 and P. falciparum gametocyte producing NF54 strain. The 3D7 and Dd2 strains were used to investigate the effect of the compounds on asexual blood stage replication. They were cultured in RPMI 1640/HEPES medium (Gibco, Thermo Scientific, Waltham, MA, USA) containing 10 µg/mL gentamicin (Gibco Thermo Scientific, Waltham, MA, USA,), 50 µg/mL hypoxanthine (Sigma-Aldrich, St. Louis, MO, USA), 0.5% v/v Albumax II (Gibco, Thermo Scientific, Waltham, MA, USA) and 5% hematocrit. Cultures were maintained at 37 °C using a gas mixture containing 5% CO2, 5% O2 and 90% N2. […] To obtain highly synchronized cultures, parasite cultures consisting mainly of ring stages were centrifuged, the pellet was resuspended in 10 mL of 5% w/v sorbitol/ddH20 and incubated for 10 min at room temperature. After washing the cells with RPMI to remove residual sorbitol, they were again cultivated, as described above. Erythrocyte concentrate and serum samples were obtained from the Department of Transfusion Medicine, University Hospital Aachen, Germany. The serum samples were mixed and pooled and donors were kept anonymous. The work with blood components from humans was approved by the Ethics commission of the RWTH University Hospital (EK 007/13).
(§2) The antiplasmodial effect of the compounds on P. falciparum asexual blood stage development was carried out using the Malstat assay, as described previously. Compounds dissolved in dimethyl sulfoxide (DMSO) were added to 1% ring stage P. falciparum 3D7 and Dd2 cultures (200 µL/well) in a 96-well plate in triplicate at final concentrations ranging from 100 µM to 0.78 µM. […] CQ at concentrations ranging from 500 nM to 4 nM was used as an internal control in the experiments, while parasites treated with 0.5% v/v DMSO served as the negative control. The parasites were cultured with the compounds for 72 h at 37 °C in the presence of the following gas combination: 5% O2, 5% CO2, and 90% N2. Afterwards, 20 µL of the incubated culture was removed and 100 µL of Malstat reagent (0.1% v/v Triton X-100, 1 g of L-lactate, 0.33 g Tris and 33 mg of 3-acetylpyridine adenine dinucleotide in 100 mL of distilled water, pH 9.0) was added in a new 96-well microtiter plate. Next, 20 µL mixture of NBT/Diaphorase (1:1; 1 mg/mL stock each) was added to the Malstat reaction and the parasite lactate dehydrogenase activity was then quantified by measuring the optical densities at 630 nm. IC50 values were then determined from variable-slope sigmoidal dose-response graphs using the GraphPad Prism program version 5 (GraphPad Software Inc., La Jolla, San Diego, CA, USA).

[2] = system: P. falciparum Dd2 strain; assay: Malstat assay, asexual blood stages, CQ-resistant strain Dd2; type: cell-based; details: Plasmodium falciparum, read-out: IC50 (µM) CQ-Resistant Strain Dd2
Procedure: as §1, §2

[3] = system: P. falciparum NF54 gametocytes; assay: Gametocyte toxicity test; type: cell-based, Plasmodium falciparum; details: 48 h treatment, then 7 d drug-free; for reduction of mature gametocyte numbers (in words) / reduction of mature gametocyte numbers: compound at IC50 concentration; for reduction in stage IV and V gametocyte numbers: compound at IC90 concentration
Procedure: as §1
P. falciparum NF54 parasites were cultured at high parasitemia to induce gametocyte formation. Once stage II gametocytes appeared, 1 mL of culture was aliquoted in triplicate in a 24-well plate with compounds at the respective IC50 and IC90 concentrations that was determined from Malstat assay. The gametocytes were again cultivated for 9 d with the daily replacement of medium. For the first 48 h of cultivation, the gametocytes were treated with test compounds, and subsequently compound free medium was used. On day 9, blood smears were prepared and stained with Giemsa and the gametocytemia was determined by counting the numbers of gametocytes stages IV and V in a total number of 1000 erythrocytes.
Figure 3 Effect of organosulfur compounds on gametocyte development. Cultures rich in stage II gametocyte were incubated with compounds at IC50 and IC90 concentrations for 2 d, and again cultivated for another 7 d with daily replacement of medium. The numbers of stage IV and V gametocytes were determined from Giemsa smears and normalized to 0.5% v/v DMSO treatment which served as negative control (set to 100%). Epoxomicin (Epoxo) at 60 nM served as positive control.

[4] = MTT cytotoxicity assay, Hela cells; type: cell-based; details: human, Hela cells (human cervical cancer cell line); for viability at 72 h: about 25 µM
Procedure: The MTT [3-(4,5-dimethylthiazol-2-yl)-2,5-diphenyltetrazolium bromide] assay was performed using the human cervical cancer cell (Hela) line and the hematologic malignancy human erythroleukemia (HEL) cell line to determine if the compounds were toxic (loss of viability) against human cells. MTT is taken up by viable cells and converted by mitochondrial dehydrogenases to a violet formazan product that cannot diffuse through cell membranes, and therefore crystallizes in viable cells. The adherent Hela cells were plated in 96-well microtiter plates and cultured at 37 °C overnight. Compounds were added to the cultures in different serial concentrations in triplicate the next day, and the cells were incubated for 72 h. DMSO was used as the negative control at a final concentration of 0.5% v/v, and a concentration of 15% v/v DMSO which is toxic was added as the positive control. After 72 h of drug treatment, medium-containing drug was replaced with 100 µL fresh drug-free medium. Then, 20 µL MTT (5 mg/mL) was added to each well and incubated for 3 h at 37 °C. The medium was subsequently removed and 100 µL solubilization solution (5% w/v SDS, 0.1 M HCl in 100% vol. DMSO) was added and incubated for 30 min under rotation at room temperature to solubilize the formazan crystals.
For both cell lines, the optical density (OD) of the solution was measured at 550 nm. The OD-values of cultures treated with compounds were normalized to the OD-values of 0.5% v/v DMSO control (set to 100% viability for Hela or 1 for HEL cell line). IC50 values were calculated from MTT assays using Graphpad Prism (V9).
(§3) Figure 4 Hemolytic and cytotoxic effect of compounds. (a) Hemolytic effect of compounds. […] The absorbance of free hemoglobin was measured at OD550 nm in the supernatant and normalized to 0.15% w/v saponin (set to 100%), which served as positive control in the experiments. 0.5% v/v DMSO was used as negative control. (b) Cytotoxicity effect of compounds on Hela cells. The cells were plated in 96-well microtiter plates and cultured overnight at 37 °C. The following day, the old medium was removed and 100 µL of fresh medium containing serially diluted compounds in corresponding wells at final concentrations ranging from 100 µM to 0.8 µM was added and the culture was incubated for 72 h. After incubation, the medium was replaced by 100 µL fresh drug-free medium and 20 µL MTT (5 mg/mL) was added in each well and incubated for 3 h at 37 °C. After 3 h, the MTT preparation was then removed from each well and 100 µL solubilization solution was added. Plates were then placed on a rotator at about 500 rpm at RT until the formazan precipitate was completely resuspended and the OD was measured at 450 nm. The data are representative of three independent experiments.

[5] = system: non-infected erythrocytes; assay: Hemolytic assay; type: cell-based, human; details: IC50 and IC90 concentrations, 48 h, 37 °C, compared with 0.5% v/v DMSO
Procedure: Since the malaria parasite replicates in the red blood cell, we determined if the compounds have an effect on non-infected erythrocytes using hemolytic assays. To this end, 1 mL of washed uninfected erythrocytes at 5% hematocrit in regular medium was plated in triplicate in a 96-well plate (200 µL/well) in the presence of compounds at IC50 and IC90 concentrations. Erythrocytes treated with 0.15% w/v saponin were used as lysis control and 0.5% v/v DMSO was used as the negative control. Following 48 h of incubation at 37 °C, the plate was centrifuged at 500× g for 2 min and 100 µL of the supernatant was transferred to another plate and the absorbance was measured at 550 nm with a spectrophotometer.
as §3

[6] = 3D7, ring stage parasites, 72 h, Malstat (plasmodial LDH)
[7] = DD2, ring stage parasites, 72 h, Malstat

Structure (SMILES): CCN(CC)CCCC(C)Nc1ccnc2cc(Cl)ccc12 (stereo not drawn) [Chloroquine, reference compound]
- IC50 ([1]; 3D7, 72 h): 0.02 ± 0.004 µM
- IC50 ([2]; DD2, 72 h): 0.14 ± 0.063 µM

Structure (SMILES): CCOC(=O)C1=C(C)N=S2(=NC(c3ccccc3)=CC(c3ccccc3)=C2)c2ccccc21 (stereo not drawn) [Compound 1]
- reduction of mature gametocyte numbers (in words) [3]: only minor reduction
- reduction in stage IV and V gametocyte numbers [3]: very high reduction
- IC50 [1, 6]: 3.8 ± 0.66 µM
- IC90 ([1]; 3D7): 34.2 µM
- viability at 72 h, 50 µM [4]: > 60%
- viability at 72 h [4]: > 90%
- hemolytic effect [5]: no hemolytic effect

Structure (SMILES): CCOC(=O)C1=C(C)N=S2(=NC(c3ccccc3)=CC(c3ccc(Cl)cc3)=C2)c2ccccc21 (stereo not drawn) [Compound 2]
- reduction of mature gametocyte numbers (in words) [3]: only minor reduction
- reduction in stage IV and V gametocyte numbers [3]: very high reduction
- IC50 [1, 6]: 3.12 ± 0.58 µM
- IC90 ([1]; 3D7): 27.9 µM
- viability at 72 h, 50 µM [4]: > 60%
- viability at 72 h [4]: > 90%
- hemolytic effect [5]: no hemolytic effect

Structure (SMILES): O=S1(c2ccc(Br)cc2)=NC(c2ccccc2)=CC(c2ccc(Cl)cc2)=N1 (stereo not drawn) [Compound 3]
- IC50 [1, 6]: 22.1 ± 1.06 µM

Structure (SMILES): CCOC(=O)C1=C(c2cccs2)N=S(=O)(N2CCCCCC2)c2c1cc1ccccc1c2Cl (stereo not drawn) [Compound 4]
- IC50 [1, 6]: 9.1 ± 2.59 µM

Structure (SMILES): O=S1(N2CCCCCC2)=NC(c2ccc(Br)cc2)=Cc2ccccc21 (stereo not drawn) [Compound 6]
- IC50 [1, 6]: 10.6 ± 1.53 µM

Structure (SMILES): CCOC(=O)C1=C(c2cccs2)N=S(=O)(N2CCCCCC2)c2c(C)cccc21 (stereo not drawn) [Compound 7]
- IC50 [1, 6]: 35.8 ± 5.11 µM

Structure (SMILES): Cc1cccc2c1S(=O)(N1CCCCCC1)=NC(c1ccc(Br)cc1)=C2 (stereo not drawn) [Compound 8]
- IC50 [1, 6]: 12.5 ± 3.27 µM

Structure (SMILES): CC(C)(C)c1ccc2c(c1)C=C(c1ccccc1)N=S2(=O)N1CCCCCC1 (stereo not drawn) [Compound 9]
- reduction of mature gametocyte numbers [3]: about 50%
- IC50 [1, 6]: 3.3 ± 1.56 µM
- IC90 ([1]; 3D7): 29.7 µM
- IC50 [2, 7]: 6.5 ± 0.87 µM
- viability at 72 h, 50 µM [4]: > 60%
- viability at 72 h [4]: > 90%
- hemolytic effect [5]: no hemolytic effect

Structure (SMILES): O=S1(N2CCCCCC2)=NC(c2ccccc2)=Cc2ccccc21 (stereo not drawn) [Compound 10]
- IC50 [1, 6]: 46.4 ± 2.67 µM

Structure (SMILES): CCOC(=O)C1=C(C)N=S(=O)(N2CCCCCC2)c2ccc(C)cc21 (stereo not drawn) [Compound 11]
- IC50 [1, 6]: 12 ± 4.28 µM

Structure (SMILES): Cc1ccc2c(c1)C=C(c1ccccc1)N=S2(=O)N1CCCCCC1 (stereo not drawn) [Compound 12]
- IC50 [1, 6]: 21.3 ± 4.05 µM

Structure (SMILES): O=S1(N2CCCCCC2)=NC(c2ccccc2)=Cc2cccc(Cl)c21 (stereo not drawn) [Compound 13]
- IC50 [1, 6]: 20.3 ± 1.69 µM

Structure (SMILES): O=[N+]([O-])c1ccc2c(c1)C=C(c1ccccc1)N=S2(=O)N1CCCCCC1 (stereo not drawn) [Compound 14]
- IC50 [1, 6]: 10.3 ± 0.9 µM

Structure (SMILES): CCOC(=O)C1=C(C)N=S(=O)(N2CCCCCC2)c2ccc([N+](=O)[O-])cc21 (stereo not drawn) [Compound 15]
- reduction of mature gametocyte numbers (in words) [3]: only minor reduction
- reduction in stage IV and V gametocyte numbers [3]: very high reduction
- IC50 [1, 6]: 5.2 ± 1.95 µM
- IC90 ([1]; 3D7): 46.8 µM
- viability at 72 h, 50 µM [4]: > 60%
- viability at 72 h [4]: > 90%
- hemolytic effect [5]: no hemolytic effect

Structure (SMILES): CCOC(=O)C1=C(c2ccc(C)cc2)N=S(=O)(N2CCCCCC2)c2ccccc21 (stereo not drawn) [Compound 16]
- reduction of mature gametocyte numbers [3]: about 50%
- IC50 [1, 6]: 3.1 ± 0.26 µM
- IC90 ([1]; 3D7): 27.9 µM
- IC50 [2, 7]: 4.4 ± 0.59 µM
- viability at 72 h, 50 µM [4]: > 60%
- viability at 72 h [4]: > 90%
- hemolytic effect [5]: no hemolytic effect

Structure (SMILES): CCOC(=O)C1=C(c2ccc(C)cc2)N=S(=O)(N2CCCCCC2)c2ccc(C)cc21 (stereo not drawn) [Compound 17]
- reduction of mature gametocyte numbers [3]: about 50%
- IC50 [1, 6]: 2.6 ± 0.7 µM
- IC90 ([1]; 3D7): 23.4 µM
- IC50 [2, 7]: 4 ± 0.28 µM
- viability at 72 h, 50 µM [4]: > 60%
- viability at 72 h [4]: > 90%
- hemolytic effect [5]: no hemolytic effect

Structure (SMILES): CCOC(=O)C1=C(c2ccccc2)N=S(=O)(N2CCCCCC2)c2ccccc21 (stereo not drawn) [Compound 18]
- IC50 [1, 6]: 26.5 ± 1.19 µM

Structure (SMILES): CCOC(=O)C1=C(c2cccs2)N=S(=O)(N2CCCCCC2)c2ccccc21 (stereo not drawn) [Compound 19]
- IC50 [1, 6]: 31.5 ± 4.9 µM

Structure (SMILES): CN1CCC[C@H](NC(=S)Nc2cc(C(F)(F)F)cc(C(F)(F)F)c2)C1 [Compound 20]
- IC50 [1, 6]: 8 ± 0.53 µM

Structure (SMILES): CC(C)C[C@@H](CN=[S@](C)(=O)c1ccccc1)NC(=S)Nc1cc(C(F)(F)F)cc(C(F)(F)F)c1 [Compound 21]
- IC50 [1, 6]: 14.1 ± 1.5 µM

Structure (SMILES): CC(C)[C@@H](CN=[S@@](C)(=O)c1ccccc1)NC(=S)Nc1cc(C(F)(F)F)cc(C(F)(F)F)c1 [Compound 22]
- IC50 [1, 6]: 15.9 ± 1.46 µM

Structure (SMILES): O=[S@@]1(c2ccccc2)=Nc2ccccc2-c2ncc3ccccc3c21 [Compound 23]
- IC50 [1, 6]: 24.9 ± 1.06 µM
